# Laboratory results from US20090259054A1, “Methods and Compositions for the Treatment of Angiogenesis and Macular Degeneration” (The Texas A&M University System, priority 2008, published 2009).
# Entries after “also recorded” stand apart in the source; their conditions may differ. Like-named read-outs stand apart in the source and are kept apart here.
# Legend:
# c-Src = c-Src phosphorylation in HUVEC cells (immunoprecipitation, Western blotting); format: cell-based, human; conditions: HUVEC cells with or without VEGF, GA 1-40 nM, 5 minutes
# Description: (§1) After starvation in ECGM medium without serum overnight, HUVEC cells were washed with 1×PBS twice, followed with incubation in M199 medium. HUVEC cells were then treated with 1 nM of GA and/or 4 nM of VEGF for 5 minutes, then subjected to immunoprecipitation using anti-VEGFR2 antibody. Anti-phosphotyrosine antibody was used for the detection of phosphorylation of the tyrosine residue of VEGFR2. […] Reaction cocktail containing 100 ng of active VEGFR2 was incubated with different concentrations of GA for 5 minutes at room temperature. Substrate peptide cocktail was added to the pre-incubated reaction cocktail/GA compound. After incubation at room temperature for 30 minutes, stop buffer was added to halt the reaction. 25 μl of each reaction was then transferred with 75 μl dH2O per well into a 96-well streptavidin coated plate and incubated at room temperature for 60 minutes. […] The stop solution was added and the plate was detected at 405 nm. […]
# (§2) HUVEC cells pretreated with or without 4 nM VEGF for 5 min were treated with or without different concentrations of GA for another 5 minutes. […] Anti-cleaved caspase 3 antibody (Santa Cruz Biotech) was used for detecting cleaved caspase 3 and polyADP ribose polymerase (PARP) cleavage was detected by an anti-PARP p85 fragment (Promega) in apoptosis assays.
# AKT = AKT phosphorylation (pSer473) in HUVEC cells (immunoprecipitation, Western blotting); format: cell-based, human; conditions: HUVEC cells with or without VEGF, increasing concentration of GA
# Description: as §1, §2
# C57BL/6 mice = test: Matrigel plug assay (VEGF dependent angiogenesis in vivo); conditions: VEGF 4 ng/ml, 7 days
# Description: Matrigel (0.5 ml/plug) with no VEGF or GA, VEGF (4 ng/ml) but no GA, VEGF (4 ng/ml) and 0.1 μM GA or 0.2 μM GA in liquid form at 4° C., respectively, were injected subcutaneously in the midventral abdominal region of 5-6 week old C57BL/6 mice (five mice for each group). After 7 days, the mice were sacrificed and the plugs were removed. Each concentration had 4-5 Matrigel plugs. The Matrigel plugs were fixed with formalin and embedded with paraffin. The 5 μm sections were stained with H&E staining. The number of erythrocyte-filled blood vessels in the high power microscope field (HPF, 200×) was recorded (plug number=4-5, t-test, p<0.005).
# FAK = FAK phosphorylation in HUVEC cells (immunoprecipitation, Western blotting); format: cell-based, human; conditions: HUVEC cells with or without VEGF, GA 1-40 nM, 5 minutes
# Description: as §1, §2
# HUVEC cells = test: Tube formation assay on Matrigel; format: cell-based, human; conditions: for IC50: Homo sapiens, HUVEC
# Description: Matrigel (BD Biosciences) were thawed at 4° C. overnight and each well of the prechilled 24-well plates was coated with 100 μl Matrigel and incubated at 37° C. for 45 minutes. HUVEC cells (4×10^4 cells) were added in 1 ml ECGM with various concentrations of gambogic acid. After 12-16 hours of incubation at 37° C., 5% CO2, endothelial cell tube formation was assessed using an OLYMPUS inverted microscope. Tubular structures were quantified by manual counting of low power fields (25×) and percent inhibition was expressed using untreated wells as 100% (t-test, p<0.001).
# [1] = 4 mg/kg GA, 1 treatment every two days; cited from earlier work
# VEGF Receptor 2 = biological target: T1, VEGF Receptor 2 (Homo sapiens, UniProt P35968); test: VEGF Receptor 2 inhibition assay (HTScan VEGF receptor 2 kinase assay kit); format: biochemical; conditions: 100 ng active VEGFR2
# T1 construct: purchased Cell Signaling Technology
# T1 sequence (P35968 789-1356 limits assumed): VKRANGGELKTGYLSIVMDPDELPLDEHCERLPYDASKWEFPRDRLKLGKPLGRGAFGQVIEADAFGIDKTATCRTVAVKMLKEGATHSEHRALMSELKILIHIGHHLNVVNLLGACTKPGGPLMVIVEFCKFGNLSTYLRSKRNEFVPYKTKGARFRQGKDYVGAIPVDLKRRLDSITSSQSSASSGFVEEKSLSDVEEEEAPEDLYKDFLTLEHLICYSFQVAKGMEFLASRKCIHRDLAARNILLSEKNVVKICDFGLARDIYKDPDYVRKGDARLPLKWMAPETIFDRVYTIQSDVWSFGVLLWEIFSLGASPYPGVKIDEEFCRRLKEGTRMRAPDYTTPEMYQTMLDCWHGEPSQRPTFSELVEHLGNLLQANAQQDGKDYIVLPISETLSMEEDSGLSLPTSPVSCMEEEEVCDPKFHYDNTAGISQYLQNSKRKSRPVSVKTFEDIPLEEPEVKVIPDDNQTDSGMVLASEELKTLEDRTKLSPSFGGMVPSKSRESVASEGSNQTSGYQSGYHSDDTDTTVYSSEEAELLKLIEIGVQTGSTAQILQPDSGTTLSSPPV
# Description: as §1
# 12.5 μl of the 4× reaction cocktail containing 100 ng VEGF Receptor 2 (supplied from the HTScan® VEGF receptor 2 kinase assay kit, Cell Signaling Technology, USA) was incubated with 12.5 μl/tube of GA for 5 minutes at room temperature. […] The plate was then detected at 405 nm with VERSAMAX microplate reader (Molecular Devices). […]
smiles,measurement,setting,value
"CC(C)=CCC[C@]1(C)C=Cc2c(O)c3c(c(CC=C(C)C)c2O1)O[C@]12C(=C[C@@H]4C[C@H]1C(C)(C)O[C@@]2(C/C=C(/C)C(=O)O)C4=O)C3=O [GA, gambogic acid]",Phosphorylation and activation of c-Src,c-Src,significantly inhibited the phosphorylation and activation
same,Phosphorylation and activation of AKT (pSer473),AKT,inhibited AKT phosphorylation and activation
same,VEGF dependent angiogenesis in Matrigel plugs,C57BL/6 mice; 0.1 μM GA,inhibited VEGF dependent angiogenesis
same,VEGF dependent angiogenesis in Matrigel plugs,C57BL/6 mice; 0.2 μM GA,totally abolished angiogenesis
same,Phosphorylation and activation of FAK,FAK,significantly inhibited the phosphorylation and activation
same,Tube formation ability of HUVECs,HUVEC cells; 100 nM GA,completely inhibited the tube-forming ability; also recorded: completely inhibited the tube formation ability
same,IC50,"HUVEC cells; 12-16 hours, read-out: Concentration that inhibited tube formation of HUVEC cells by 50%",~50 nM
same,IC50,"HUVEC cells; as printed in the legend of FIG. 3, read-out: Concentration that inhibited 50% tube formation of HUVEC cells",~50 nM
same,Toxicity of dosage,[1],non-toxic dosage
same,IC50,VEGF Receptor 2,0.012 nM
